Data on 1 compound can be found in patent EP0408668B1 (MASSACHUSETTS INSTITUTE OF TECHNOLOGY, priority 1988, dated 1990).

The test system of test [1] is brain levels of cytidine and cytidine-(5')-diphosphate-choline (CDP-choline). The settings on record: rats, cytidine 1 g/kg ip, sacrificed after 1 hour, vs placebo.
The subject of test [2] is neuroblastoma/glioma cells (NG 108-15). The experiment in a line: Formation of tritiated CDP-choline from tritiated choline in neuroblastoma/glioma cells. It counts as cell-based. The conditions noted are these: NG 108-15 cells, cytidine 25 µM, 90 minutes. The source says:
CDP-choline is the immediate precursor for the phosphatidylcholine in membranes of neurons and other cells and its formation controls the production of phosphatidylcholine.

For `Nc1ccn([C@@H]2O[C@H](CO)[C@@H](O)[C@H]2O)c(=O)n1` [cytidine], in test [1], the “brain CDP-choline levels rose by” value is given as “about 50%”. In test [2], the “newly-formed CDP-choline in cells incubated with supplemental cytidine vs without cytidine” value is “almost twice as much”.
